We go through five compounds from PMC9785280, “Synthesis, Antiproliferative Evaluation and QSAR Analysis of Novel Halogen- and Amidino-Substituted Benzothiazoles and Benzimidazoles” (International Journal of Molecular Sciences, 2022).

“And” between values parts separate entries of the source, which are not always exact repeats. Equal values may be shown once. Some results are limits rather than exact numbers.

For one series, the system named is human fibroblasts (BJ). The series is described as follows: MTT antiproliferative assay, normal BJ fibroblasts. The following applies: for IC50: Homo sapiens, Fibroblast, 72 h, MTT, mean ± SD of three independent experiments, normal cells. Type of series: cell-based. The method, boiled down: (§1)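 GI50 values derive from least-squares fits of log concentration against percent inhibition. Each fit uses MTT absorbance (595 nm) recorded after 72 h treatment at 10^−7 to 10^−4 M, relative to untreated cells.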
Background: Formazan colour is commonly taken as a measure of viable cells.

Series [1] concerns HeLa (cervical adenocarcinoma) cells. As to the kind of experiment: MTT antiproliferative assay, HeLa. Type of series: cell-based. The settings on record: Homo sapiens, 72 h, mean ± SD of three independent experiments. In a few lines:
as §1

Series [2] concerns SW620 (colorectal adenocarcinoma, metastatic) cells. As to the kind of experiment: MTT antiproliferative assay, SW620. It counts as cell-based, human. The following applies: for IC50: Homo sapiens, SW-620, 72 h, MTT, mean ± SD of three independent experiments, read-out: IC50 (µM) SW620. Here is the method: (§2) The growth inhibition activity was assessed according to the slightly modified procedure performed at the National Cancer Institute, Developmental Therapeutics Program.
(§3) Examined compounds were dissolved in DMSO (1 × 10^−2 M). The experiments were carried out on seven human tumor cell lines and two normal cell lines. The following cell lines were used: HeLa (human cervical adenocarcinoma; purchased from ATCC), CaCo-2 (human colorectal adenocarcinoma), HuT78 (T-cell lymphoma), THP-1 (acute monocytic leukemia), SW620 (colorectal adenocarcinoma, metastatic), MDA-MB-231 (human breast adenocarcinoma), HL60 (promyelocytic leukemia cell line), foreskin fibroblast cells (BJ) and MDCK1 (Madine–Darby canine kidney fibroblast like cells). MDCK1 cells were used between 24 and 26 passages.
(§4) Adherent cells were cultured in the Dulbecco’s modified Eagle medium—DMEM (Gibco, EU) supplemented with 10 % heat-inactivated fetal bovine serum (FBS, Gibco, EU), 2 mM glutamine, and 100 U/0.1 mg penicillin/streptomycin. Cells on suspension were cultured in RPMI 1640 (Gibco, EU) medium supplemented with 10 % FBS (Gibco, EU), 2 mM glutamine, 1 mM sodium pyruvate, 10 mM HEPES. Cells were grown in humidified atmosphere under the conditions of 37 °C/5% of CO2 gas in the CO2 incubator (IGO 150 CELLlife^TM, JOUAN, Thermo Fisher Scientific, Waltham, MA, USA). A erythrosin B (Sigma-Aldrich, St. Louis, MO, USA) dye exclusion method was used to assess cell viability before plating.
(§5) Adherent cells (HeLa, CaCo-2, MCF-7 and MDCK-1) were plated in 96-well flat bottom plates (Greiner, Frickenhausen, Austria) at a concentration of 2 × 10^4 cells/mL. Suspension cells (THP-1 and HuT78) were plated in 96-well microtiter plates (Sarstead, Newton, USA) at a concentration of 1 × 10^5 cells/mL. Twenty-four hours later, cells were treated with test agents in […] 10-fold dilutions ([…] to 10^−4 M) and incubated for further 72 h. Working dilutions were freshly prepared on the day of testing. The solvent was also tested for eventual inhibitory activity by adjusting its concentration to be the same as in working concentrations. After 72 h of incubation, the cell growth rate was evaluated by performing the MTT assay, which detects dehydrogenase activity in viable cells. For this purpose, upon completion of the incubation period, growth medium was discarded and 50 μL of MTT was added to each well at a concentration of 5 mg/mL. After four hours of incubation at 37 °C, water insoluble MTT-formazan crystals were dissolved in 150 μL of dimethyl-sulfoxide (DMSO) for adherent cells, and in 10 % SDS with 0.01 M/L HCl for cells grown in suspension. The absorbance (OD, optical density) was measured on a microplate reader (iMark, BIO RAD, Hercules, CA, USA) at 595 nm.
(§6) Percent of life cells was calculated as follows: % = OD (sample)–OD (background)/OD (control)–OD (background) × 100.
(§7) Optical density (OD) of background for adherent cells is the OD of MTT solution and DMSO; OD (background) for suspension cells is OD of the culture medium with MTT and 10% SDS with 0.01 M/L HCl; OD (control) is the OD of the cells growth without tested compounds.
(§8) Calculation of GI50 value curves and QC analysis is performed by using the Excel tools and GraphPadPrism software (La Jolla, CA), v. 5.03. Briefly, individual concentration effect curves are generated by plotting the logarithm of the concentration of tested compounds(X) vs. corresponding percent inhibition values (Y) using least squares fit. The best fit GI50 values are calculated using Log (inhibitor) versus normalized response—Variable slope equation, where Y Ľ 100/(1 ţ 10 ((LogIC50 _ X) * HillSlope)). QC criteria parameters (Z0, S:B, R2, HillSlope) were checked for every GI50 curve.

The subject of series [3] is CaCo-2 (colon adenocarcinoma) cells. As to the kind of experiment: MTT antiproliferative assay, CaCo-2. Type of series: cell-based, human. The settings on record: Homo sapiens, Caco-2; 72 h, MTT, mean ± SD of three independent experiments. In a few lines:
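CaCo-2 cells, plated at 2 × 10^4 cells/mL in DMEM with 10 % FBS at 37 °C/5% CO2, were treated 24 h later with five 10-fold dilutions (10^−7 to 10^−4 M) for 72 h. Viability was measured by MTT (4 h, formazan dissolved in DMSO, OD 595 nm) against background and untreated controls. GI50 came from log-concentration versus percent-inhibition fits.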

A further series deals with HuT78 cells. The series is described as follows: Cell cycle analysis (PI, flow cytometry). It counts as cell-based, human. The settings on record: HuT78, 5 µM, 24 h, versus untreated cells. On the procedure:
The HuT78 cells were plated in 6-well plates at a concentration of 5 × 10^5 cells per well and treated 24 h and 48 h with selected compounds 36c, 42a, 42c, 45a, 45b, 45c and 46c at a concentration of 5 μM. After drug treatment, the cells were fixed with ice-cold 70% ethanol in phosphate-buffered saline (PBS) and incubated with 0.3 μg/mL propidium iodide for 30 min at room temperature. Before being analyzed by flow cytometry (BD FACSCalibur, Becton Dickinson, San Jose, CA, SAD), samples were treated with 0.4 μg/mL RNase A for 5 min at room temperature. The resultant DNA histograms were generated and analyzed using FlowJo 7.6 software (Treestar, Inc, Ashland, OR, USA). Experiments were done in duplicate and the quantitative data are reported as average value ± standard deviation. Comparisons between control (non-treated) and treated groups were done using one-way analysis of variance (ANOVA) with Tukey–Kramer’s post hoc test with MedCalc statistical program. P-value less than 0.05 was considered statistically significant.
A general note: A flow cytometer gives signals particle by particle.

Series [4] has as its system HuT78 (T-cell lymphoma) cells. As to the kind of experiment: MTT antiproliferative assay, HuT78. Type of series: cell-based, human. The following applies: for IC50: Homo sapiens, HuT78, 72 h, 72 h, MTT, mean ± SD of three independent experiments; for SI (MDCK) HuT78: SI = IC50 MDCK1 / IC50 HuT78. The method, boiled down: as §1
The test system of series [5] is THP1 (human monocytic leukemia) cells. The series is described as follows: MTT antiproliferative assay, THP1. Type of series: cell-based. The following applies: for IC50: Homo sapiens, THP-1, 72 h, MTT, mean ± SD of three independent experiments; for SI (BJ) THP1: SI = IC50 BJ / IC50 THP1; for SI (MDCK) THP1: SI = IC50 MDCK1 / IC50 THP1. Here is the method:
as §2, §3, §4, §5, §6, §7, §8

Series [6] concerns MDCK1 (Madin–Darby canine kidney) cells. As to the kind of experiment: MTT antiproliferative assay, non-tumor MDCK1 cells. It counts as cell-based. The settings on record: Canis lupus familiaris, MDCK1, 72 h, mean ± SD of three independent experiments, normal cells. The method, boiled down:
as §1

In series [7] the test system is MDA-MB-231 (human breast adenocarcinoma) cells. As to the kind of experiment: MTT antiproliferative assay, MDA-MB-231. It counts as cell-based. The following applies: for IC50: Homo sapiens, MDA-MB-231, 72 h, MTT, mean ± SD of three independent experiments. On the procedure:
as §2, §3, §4, §5, §6, §7, §8

The test system of series [8] is HL60 (promyelocytic leukemia) cells. The series is described as follows: MTT antiproliferative assay, HL60. It counts as cell-based, human. The following applies: for IC50: Homo sapiens, HL-60, 72 h, MTT, mean ± SD of three independent experiments; for SI (BJ) HL60: SI = IC50 BJ / IC50 HL60; for SI (MDCK) HL60: SI = IC50 MDCK1 / IC50 HL60. On the procedure:
as §2, §3, §4, §5, §6, §7, §8

A further series concerns MCF-7^wt cells. On the set-up: method as in PMID 23623491. The settings on record: estrogen receptor-positive MCF-7^wt cells ref 17,18; cited from earlier work.

The IC50 is the concentration at which inhibition is half-maximal. As to `COc1cc(-c2nc3ccc(C4=NCCCN4)cc3[nH]2)ccc1OCC(=O)c1ccccc1` [42c], the IC50 with human fibroblasts (BJ) is 32.8 ± 4.1 µM; in series [1], > 100 µM; in [2], 29.8 ± 3 µM; in [3], > 100 µM; in series [4], 24.9 ± 4.6 µM; in series [5] it was 19.7 ± 2.4 µM. Besides, the IC50 in series [6] is > 100 µM; in series [7], 38.9 ± 4.2 µM; in series [8] it was 19.5 ± 0.8 µM. The “SI (MDCK) SW620” value in series [2] (SI = IC50 MDCK1 / IC50 SW620) is 3.36. Further, in the series on HuT78 cells, the “G2/M phase cell fraction” value is reported as “decrease in G2/M phase”. For the same compound, in series [4] (SI = IC50 BJ / IC50 HuT78), the “SI (BJ) HuT78” value is 1.32. The “SI (MDCK) HuT78” value in series [4] is listed as 4.0. Moreover, in [5], the “SI (BJ) THP1” value amounted to 1.68. In addition, in series [5], the “SI (MDCK) THP1” value came out at 5.13. Also, the “SI (MDCK) MDA-MB-231” value in series [7] (SI = IC50 MDCK1 / IC50 MDA-MB-231) is on record as 2.57. Besides, the “SI (BJ) HL60” value in series [8] worked out at 1.68. The “SI (MDCK) HL60” value in series [8] stood at 5.13.
On to `c1ccc(Cn2cc(COc3ccc(-c4nc5ccc(C6=NCCCN6)cc5[nH]4)cc3)nn2)cc1` [45a], for which the IC50 in series [1] was > 100 µM; in [2], > 100 µM; in series [3], > 100 µM; in series [4], 4.8 ± 3.6 µM; in series [6] it was > 100 µM; in [7], > 100 µM. For the same compound, in series [8], the IC50 worked out at 48.1 ± 16.4 µM. The “G2/M phase cell fraction” value with HuT78 cells is “decrease in G2/M phase”. In series [4], the “SI (MDCK) HuT78” value is 20.83. Moreover, in series [5], the “SI (BJ) THP1” value is 69.5 and 70. Further, the “SI (MDCK) THP1” value in series [5] came out at 125. Further, the “SI (BJ) HL60” value in series [8] is given as 1.15. In addition, the “SI (MDCK) HL60” value in series [8] was found to be 2.07.
As for `Fc1cc(-c2nc3ccc(C4=NCCCN4)cc3[nH]2)ccc1OCc1cn(Cc2ccccc2)nn1` [45b], the IC50 in the series with human fibroblasts (BJ) is 82.1 ± 0.4 µM; in series [1] it was > 100 µM; in [2], > 100 µM; in series [3], > 100 µM; in series [4], 5.5 ± 4 µM; in [5] it was 2.5 ± 1.5 µM. The IC50 in series [6] was 46.1 ± 14.8 µM; in series [7] it was > 100 µM; in series [8] it was 30 ± 12.3 µM. For the same compound, the “G2/M phase cell fraction” value in the series on HuT78 cells is “decrease in G2/M phase”. For the same compound, the “SI (MDCK) HuT78” value in series [4] was 8.36. Besides, the “SI (BJ) THP1” value in series [5] turned out to be 32.84. For the same compound, the “SI (MDCK) THP1” value in [5] is reported as 18.44. Moreover, the “SI (BJ) HL60” value in [8] stood at 2.74. For the same compound, the “SI (MDCK) HL60” value in series [8] is recorded as 1.54.
On to `COc1cc(-c2nc3ccc(C4=NCCCN4)cc3[nH]2)ccc1OCc1cn(Cc2ccccc2)nn1` [45c], for which the “toxicity to normal BJ cells (in words)” value with human fibroblasts (BJ) is on record as “not toxic”. In addition, the IC50 in the series on human fibroblasts (BJ) was > 100 µM; in series [1], > 100 µM; in [2], > 100 µM; in [3], > 100 µM; in series [4], 4.1 ± 3.3 µM; in series [5] it was > 100 µM. Also, the concentration for half-maximal inhibition (IC50) in [6] was 68.5 ± 22.7 µM; in [7] it was > 100 µM; in [8], 25.1 ± 16 µM. Further, the “G2/M phase cell fraction” value with HuT78 cells was “decrease in G2/M phase”. In series [4], the “SI (MDCK) HuT78” value was found to be 16.7. The “SI (MDCK) HL60” value in series [8] is recorded as 2.73.
For `Nc1ccc(-c2nc3ccccc3s2)cc1` [CJM-126], the IC50 with MCF-7^wt cells is < 0.001 µM.
